Experimental data published in ChEMBL document CHEMBL4376834, “Discovery of 4H-Chromen-4-one Derivatives as a New Class of Selective Rho Kinase (ROCK) Inhibitors, which Showed Potent Activity in ex Vivo Diabetic Retinopathy Models” (J Med Chem, 2019).

What was measured:
[1] = biological target: LIM domain kinase 2 (Homo sapiens, UniProt P53671); assay: Inhibition of human LIMK2 in presence of 10 uM of ATP by radiometric analysis
[2] = biological target: cGMP-dependent protein kinase 1 (Homo sapiens, UniProt Q13976); assay: Inhibition of recombinant full length human PKG1alpha using RRRLSFAEPG as substrate incubated for 40 mins in presence of [gamma-33P]ATP and 10 uM ATP by radiometric scintillation counting analysis
[3] = Intrinsic clearance in human liver microsomes measured upto 45 mins in presence of NADPH by LC-MS analysis; format: ADME, Microsome; details: read-out: CLH
[4] = biological target: Tyrosine-protein kinase ABL1 (Homo sapiens, UniProt P00519, M351T); assay: Inhibition of human recombinant ABL1 M351T mutant (27 to end residues) using EAIYAAPFAKKK as substrate incubated for 40 mins in presence of [gamma-33P]ATP by scintillation counting based radiometry assay
[5] = biological target: Tyrosine-protein kinase ABL1 (Homo sapiens, UniProt P00519, Q252H); assay: Inhibition of human recombinant ABL1 Q252H mutant (27 to end residues) using EAIYAAPFAKKK as substrate incubated for 40 mins in presence of [gamma-33P]ATP by radiometric scintillation counting analysis
[6] = biological target: CDK12/Cyclin K (Homo sapiens, UniProt Q9NYV4); assay: Inhibition of recombinant full length human CDK12/cyclinK using RSRSRSRSRSRSR as substrate incubated for 120 mins in presence of [gamma-33ATP] by radiometric scintillation counting analysis; format: protein-complex assay
CDK12/Cyclin K, sequence (O75909 whole entry): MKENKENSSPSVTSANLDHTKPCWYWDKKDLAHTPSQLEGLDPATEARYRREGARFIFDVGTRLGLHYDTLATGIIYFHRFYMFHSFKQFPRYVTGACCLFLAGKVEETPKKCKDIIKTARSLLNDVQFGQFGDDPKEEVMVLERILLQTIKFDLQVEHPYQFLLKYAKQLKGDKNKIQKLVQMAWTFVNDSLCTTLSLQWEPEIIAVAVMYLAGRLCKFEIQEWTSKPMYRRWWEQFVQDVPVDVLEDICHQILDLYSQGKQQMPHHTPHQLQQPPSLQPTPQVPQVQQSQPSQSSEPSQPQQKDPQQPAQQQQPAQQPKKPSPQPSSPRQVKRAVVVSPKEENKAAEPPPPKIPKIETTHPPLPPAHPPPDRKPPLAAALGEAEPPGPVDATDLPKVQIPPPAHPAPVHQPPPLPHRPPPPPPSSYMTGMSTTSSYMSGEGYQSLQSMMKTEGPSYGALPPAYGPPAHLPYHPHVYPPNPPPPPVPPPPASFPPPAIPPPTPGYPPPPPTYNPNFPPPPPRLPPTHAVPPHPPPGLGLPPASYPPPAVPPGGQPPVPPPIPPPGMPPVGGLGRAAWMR
CDK12/Cyclin K, sequence (Q9NYV4 whole entry): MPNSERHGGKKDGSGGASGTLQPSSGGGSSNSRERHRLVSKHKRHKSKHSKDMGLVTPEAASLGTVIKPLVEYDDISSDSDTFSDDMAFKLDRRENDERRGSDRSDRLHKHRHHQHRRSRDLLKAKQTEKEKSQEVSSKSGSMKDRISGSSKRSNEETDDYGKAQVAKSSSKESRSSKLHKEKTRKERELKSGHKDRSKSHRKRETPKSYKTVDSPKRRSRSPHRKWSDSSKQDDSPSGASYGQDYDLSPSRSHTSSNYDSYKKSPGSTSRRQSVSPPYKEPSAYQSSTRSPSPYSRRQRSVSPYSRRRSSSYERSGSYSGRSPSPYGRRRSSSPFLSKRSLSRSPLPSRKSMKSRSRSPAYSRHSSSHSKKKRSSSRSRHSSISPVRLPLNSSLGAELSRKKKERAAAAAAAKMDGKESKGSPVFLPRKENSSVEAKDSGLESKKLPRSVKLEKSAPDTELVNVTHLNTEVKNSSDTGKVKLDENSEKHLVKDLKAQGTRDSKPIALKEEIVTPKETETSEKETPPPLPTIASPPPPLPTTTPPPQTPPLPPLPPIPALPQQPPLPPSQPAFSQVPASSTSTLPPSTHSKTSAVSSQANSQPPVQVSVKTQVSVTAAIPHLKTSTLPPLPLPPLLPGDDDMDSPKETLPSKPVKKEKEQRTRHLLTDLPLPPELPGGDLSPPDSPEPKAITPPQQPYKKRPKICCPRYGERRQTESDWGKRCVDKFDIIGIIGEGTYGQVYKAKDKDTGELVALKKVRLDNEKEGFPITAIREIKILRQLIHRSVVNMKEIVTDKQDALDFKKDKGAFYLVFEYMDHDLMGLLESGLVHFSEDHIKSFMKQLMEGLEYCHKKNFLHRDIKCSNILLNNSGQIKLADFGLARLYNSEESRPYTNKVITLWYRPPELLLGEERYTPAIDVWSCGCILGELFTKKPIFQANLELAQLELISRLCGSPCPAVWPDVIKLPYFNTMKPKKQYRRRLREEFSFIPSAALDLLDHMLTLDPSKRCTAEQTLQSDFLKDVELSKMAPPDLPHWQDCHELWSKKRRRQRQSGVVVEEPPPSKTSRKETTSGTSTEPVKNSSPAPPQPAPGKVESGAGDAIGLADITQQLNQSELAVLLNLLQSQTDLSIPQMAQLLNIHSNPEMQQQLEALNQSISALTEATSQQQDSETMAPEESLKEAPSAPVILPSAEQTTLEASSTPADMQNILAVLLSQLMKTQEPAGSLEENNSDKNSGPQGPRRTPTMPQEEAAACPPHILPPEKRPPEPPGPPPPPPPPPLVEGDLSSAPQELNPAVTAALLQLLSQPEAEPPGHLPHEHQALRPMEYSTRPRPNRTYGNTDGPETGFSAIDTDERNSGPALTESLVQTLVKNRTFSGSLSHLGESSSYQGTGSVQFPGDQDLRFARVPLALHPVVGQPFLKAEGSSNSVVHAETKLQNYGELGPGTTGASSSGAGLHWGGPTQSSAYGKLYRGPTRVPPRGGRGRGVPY

[7] = biological target: Mast/stem cell growth factor receptor Kit (Homo sapiens, UniProt P10721); assay: Inhibition of recombinant human C-Kit (544 to end residues) using poly (Glu,Tyr) 4:1 as substrate in presence of [gamma-33ATP] by radiometric scintillation counting analysis
[8] = biological target: Death-associated protein kinase 2 (Homo sapiens, UniProt Q9UIK4); assay: Inhibition of recombinant full length human DAPK2 using Calmodulin as substrate incubated 40 mins in presence of [gamma-33ATP] by radiometric scintillation counting analysis
Death-associated protein kinase 2, sequence (Q9UIK4 whole entry): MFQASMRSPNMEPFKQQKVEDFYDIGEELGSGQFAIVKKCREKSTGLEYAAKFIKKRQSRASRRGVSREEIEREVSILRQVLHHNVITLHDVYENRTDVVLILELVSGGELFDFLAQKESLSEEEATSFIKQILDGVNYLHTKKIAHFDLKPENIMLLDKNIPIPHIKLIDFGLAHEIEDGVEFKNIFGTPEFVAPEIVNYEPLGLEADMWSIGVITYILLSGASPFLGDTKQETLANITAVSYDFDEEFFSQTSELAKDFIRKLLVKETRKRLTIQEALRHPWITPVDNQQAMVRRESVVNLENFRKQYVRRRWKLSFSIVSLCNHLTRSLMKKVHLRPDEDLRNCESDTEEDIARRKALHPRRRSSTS

[9] = biological target: Serine/threonine-protein kinase 17B (Homo sapiens, UniProt O94768); assay: Inhibition of recombinant full length human DRAK2 using KKRPQRRYSNVF as substrate at 120 mins in presence of [gamma-33ATP] by radiometric scintillation counting analysis
[10] = Inhibition of recombinant human PKCeta V108L/G109R/L392Q triple mutant (2 to end residues) using ERMRPRKRQGSVRR as substrate incubated for 40 mins in presence of [gamma33P]ATP by radiometric scintillation counting analysis
[11] = biological target: Serine/threonine-protein kinase MRCK beta (Homo sapiens, UniProt Q9Y5S2); assay: Inhibition of recombinant human MRCKbeta (1 to 473 residues) using KKRNRTLTV as substrate incubated for 40 mins in presence of [gamma-33ATP by radiometric scintillation counting analysis
Serine/threonine-protein kinase MRCK beta, sequence (Q9Y5S2 whole entry, the tested form may be a part, canonical isoform): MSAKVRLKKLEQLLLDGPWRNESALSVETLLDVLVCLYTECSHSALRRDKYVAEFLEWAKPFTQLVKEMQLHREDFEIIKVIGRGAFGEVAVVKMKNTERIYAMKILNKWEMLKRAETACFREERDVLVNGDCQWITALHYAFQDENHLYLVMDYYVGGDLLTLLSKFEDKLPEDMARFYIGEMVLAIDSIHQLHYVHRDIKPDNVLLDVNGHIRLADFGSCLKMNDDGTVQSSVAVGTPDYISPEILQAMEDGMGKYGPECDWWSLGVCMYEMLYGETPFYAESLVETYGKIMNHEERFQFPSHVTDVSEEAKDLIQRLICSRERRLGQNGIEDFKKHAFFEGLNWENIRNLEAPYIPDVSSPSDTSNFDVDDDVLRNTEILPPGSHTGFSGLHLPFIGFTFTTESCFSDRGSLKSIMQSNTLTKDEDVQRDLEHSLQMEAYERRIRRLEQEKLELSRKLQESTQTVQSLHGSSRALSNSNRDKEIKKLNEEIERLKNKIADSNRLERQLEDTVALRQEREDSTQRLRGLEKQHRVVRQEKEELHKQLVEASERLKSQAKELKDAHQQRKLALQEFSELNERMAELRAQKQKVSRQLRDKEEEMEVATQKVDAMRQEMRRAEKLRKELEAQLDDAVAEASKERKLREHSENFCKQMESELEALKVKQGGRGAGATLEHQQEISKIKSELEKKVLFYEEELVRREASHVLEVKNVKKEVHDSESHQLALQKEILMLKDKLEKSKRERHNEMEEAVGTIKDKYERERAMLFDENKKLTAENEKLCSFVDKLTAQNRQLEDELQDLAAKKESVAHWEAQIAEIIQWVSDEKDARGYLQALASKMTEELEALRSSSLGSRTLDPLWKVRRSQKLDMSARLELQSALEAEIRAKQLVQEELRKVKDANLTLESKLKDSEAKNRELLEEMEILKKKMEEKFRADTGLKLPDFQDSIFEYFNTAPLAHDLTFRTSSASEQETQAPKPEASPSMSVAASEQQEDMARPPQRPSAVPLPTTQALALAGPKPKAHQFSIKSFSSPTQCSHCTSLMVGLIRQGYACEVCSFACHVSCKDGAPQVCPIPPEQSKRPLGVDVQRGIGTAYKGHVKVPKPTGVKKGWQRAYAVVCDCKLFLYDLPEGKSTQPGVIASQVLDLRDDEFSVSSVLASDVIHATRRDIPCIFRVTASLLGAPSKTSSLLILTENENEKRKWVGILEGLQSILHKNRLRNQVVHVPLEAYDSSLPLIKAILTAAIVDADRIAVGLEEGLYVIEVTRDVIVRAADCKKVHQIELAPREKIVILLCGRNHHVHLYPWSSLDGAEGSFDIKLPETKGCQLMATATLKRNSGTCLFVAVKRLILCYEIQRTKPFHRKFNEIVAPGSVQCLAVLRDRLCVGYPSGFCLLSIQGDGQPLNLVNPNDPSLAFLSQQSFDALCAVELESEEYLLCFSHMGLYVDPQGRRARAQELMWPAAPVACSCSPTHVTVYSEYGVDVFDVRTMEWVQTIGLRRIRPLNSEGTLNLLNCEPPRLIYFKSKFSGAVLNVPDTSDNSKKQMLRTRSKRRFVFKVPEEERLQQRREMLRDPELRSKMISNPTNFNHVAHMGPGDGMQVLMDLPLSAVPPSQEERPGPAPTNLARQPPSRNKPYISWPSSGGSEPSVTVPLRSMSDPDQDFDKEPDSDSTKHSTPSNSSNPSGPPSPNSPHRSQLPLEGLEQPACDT

[12] = biological target: Phosphorylase b kinase gamma catalytic chain, liver/testis isoform (Homo sapiens, UniProt P15735, F290L); assay: Inhibition of recombinant human PhKgamma2 F290L (1 to 301 residues) usingKKLNRTLSFAEPG as substrate incubated for 40 mins in presence of [gamma33P]ATP by radiometric scintillation counting analysis
[13] = biological target: Ephrin type-A receptor 2 (Homo sapiens, UniProt P29317); assay: Inhibition of recombinant human EphA2 (596 to 900 residues) using poly(Glu, Tyr) 4:1 as substrate after 40 mins in presence of [gamma-33ATP] by radiometric scintillation counting analysis
Ephrin type-A receptor 2, sequence (P29317 whole entry, the tested form may be a part): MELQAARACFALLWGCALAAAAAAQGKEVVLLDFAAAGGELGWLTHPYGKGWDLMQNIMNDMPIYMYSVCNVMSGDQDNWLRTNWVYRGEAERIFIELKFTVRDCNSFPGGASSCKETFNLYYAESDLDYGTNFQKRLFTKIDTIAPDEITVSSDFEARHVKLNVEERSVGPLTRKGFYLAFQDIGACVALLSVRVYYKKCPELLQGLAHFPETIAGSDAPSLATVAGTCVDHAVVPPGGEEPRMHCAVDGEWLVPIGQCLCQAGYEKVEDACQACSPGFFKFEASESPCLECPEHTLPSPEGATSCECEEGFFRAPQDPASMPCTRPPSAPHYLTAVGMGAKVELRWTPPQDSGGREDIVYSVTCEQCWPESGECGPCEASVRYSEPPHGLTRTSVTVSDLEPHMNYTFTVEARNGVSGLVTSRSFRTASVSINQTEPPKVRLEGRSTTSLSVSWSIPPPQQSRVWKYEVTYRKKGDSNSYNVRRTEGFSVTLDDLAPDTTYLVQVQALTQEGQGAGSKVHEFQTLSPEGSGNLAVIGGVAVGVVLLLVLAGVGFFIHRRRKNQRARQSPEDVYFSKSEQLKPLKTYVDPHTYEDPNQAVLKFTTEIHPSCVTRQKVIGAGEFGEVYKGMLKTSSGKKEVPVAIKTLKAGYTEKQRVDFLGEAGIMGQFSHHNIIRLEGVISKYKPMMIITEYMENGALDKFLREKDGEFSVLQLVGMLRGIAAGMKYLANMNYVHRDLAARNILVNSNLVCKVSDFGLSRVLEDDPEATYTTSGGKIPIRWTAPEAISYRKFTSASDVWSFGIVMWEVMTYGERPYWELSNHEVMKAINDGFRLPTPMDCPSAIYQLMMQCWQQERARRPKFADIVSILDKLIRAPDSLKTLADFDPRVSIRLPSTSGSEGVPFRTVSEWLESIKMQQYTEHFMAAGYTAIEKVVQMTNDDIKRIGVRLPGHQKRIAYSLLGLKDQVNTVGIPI

[14] = biological target: Ephrin type-A receptor 5 (Homo sapiens, UniProt P54756); assay: Inhibition of recombinant human EphA5 (655 to 956 residues) using poly(Glu, Tyr) 4:1 as substrate measured after 40 mins in presence of [gamma33ATP] by radiometric scintillation counting analysis
[15] = Inhibition of recombinant human EphB2 A848S/K918E double mutant (560 to end residues) using poly(Glu, Tyr) 4:1 as substrate after 40 mins in presence of [gamma-33ATP] by radiometric scintillation counting analysis
[16] = biological target: Tyrosine-protein kinase Fgr (Homo sapiens, UniProt P09769); assay: Inhibition of recombinant human FGR (2 to end residues) using poly(Glu, Tyr) 4:1 as substrate after 40 mins in presence of [gamma-33ATP] by radiometric scintillation counting analysis
[17] = Inhibition of recombinant full length human JNK2alpha2 S51N mutant using ATF2 as substrate after 40 mins by [gamma-33ATP] by radiometric scintillation counting analysis
[18] = biological target: Mitogen-activated protein kinase kinase kinase kinase 5 (Homo sapiens, UniProt Q9Y4K4); assay: Inhibition of recombinant full length human MAP4K5 using myelin basic protein as substrate incubated for 40 mins in presence of [gamma-33ATP by radiometric scintillation counting analysis
[19] = biological target: cAMP-dependent protein kinase catalytic subunit PRKX (Homo sapiens, UniProt P51817); assay: Inhibition of recombinant human full length PrKX using RRRLSFAEPG as substrate incubated for 40 mins in presence of [gamma33P]ATP by radiometric scintillation counting analysis
[20] = biological target: Tyrosine-protein kinase FRK (Homo sapiens, UniProt P42685); assay: Inhibition of recombinant human PTK5 (218 to end residues) using GGEEEEYFELVKK as substrate incubated for 40 mins in presence of [gamma33P]ATP by radiometric scintillation counting analysis
[21] = biological target: Proto-oncogene tyrosine-protein kinase receptor Ret (Homo sapiens, UniProt P07949, V804M); assay: Inhibition of recombinant human Ret V804M mutant (658 to end residues) using KKKVSRSGLYRSP as substrate incubated for 40 mins in presence of [gamma33P]ATP by radiometric scintillation counting analysis
[22] = Inhibition of human SNRK E97G/P116A double mutant (65 to 409 residues) using KKLRRTLSFAEPG as substrate incubated for 40 mins in presence of [gamma33P]ATP by radiometric scintillation counting analysis
[23] = biological target: Proto-oncogene tyrosine-protein kinase Src (Homo sapiens, UniProt P12931, T341M); assay: Inhibition of recombinant full length human SRC T341M mutant using GGEEEEYFELVKK as substrate incubated for 40 mins in presence of [gamma33P]ATP by radiometric scintillation counting analysis
[24] = biological target: Transcription initiation factor TFIID subunit 1-like (Homo sapiens, UniProt Q8IZX4); assay: Inhibition of recombinant human TAF1L (1428 to end residues) using RRRFRPASPLRGP as substrate incubated for 120 mins in presence of [gamma33P]ATP by radiometric scintillation counting analysis
[25] = biological target: Death-associated protein kinase 3 (Homo sapiens, UniProt O43293); assay: Inhibition of recombinant human ZIPK (1 to 290 residues) using KKLNRTLSFAEPG substrate incubated for 40 mins in presence of [gamma33P]ATP by radiometric scintillation counting analysis
[26] = Inhibition of human PIP4K2

Question: With CN(C)c1ccc(C(=O)Nc2cccc(NC(=O)COc3ccc4c(=O)ccoc4c3)c2)cc1 as the compound, how does the IC50 [1] read?
Answer: 0.046 µM

Question: And the IC50 [2]?
Answer: 0.517 µM

Question: And the CLint scaled [3]?
Answer: 216 mL/min/kg

Question: What about the IC50 [4] of the same compound?
Answer: > 10 µM

Question: And the IC50 [5]?
Answer: > 10 µM

Question: What about the IC50 [6] of the same compound?
Answer: > 10 µM

Question: And the IC50 [7]?
Answer: > 10 µM

Question: What about the IC50 [8] of the same compound?
Answer: > 10 µM

Question: And the IC50 [9]?
Answer: > 10 µM

Question: And the IC50 [10]?
Answer: > 10 µM

Question: What about the IC50 [11] of the same compound?
Answer: > 10 µM

Question: What about the IC50 [12] of the same compound?
Answer: > 10 µM

Question: And the IC50 [13]?
Answer: > 10 µM

Question: What about the IC50 [14] of the same compound?
Answer: > 10 µM

Question: And the IC50 [15]?
Answer: > 10 µM

Question: What about the IC50 [16] of the same compound?
Answer: > 10 µM

Question: What about the IC50 [17] of the same compound?
Answer: > 10 µM

Question: What about the IC50 [18] of the same compound?
Answer: > 10 µM

Question: What about the IC50 [19] of the same compound?
Answer: > 10 µM

Question: And the IC50 [20]?
Answer: > 10 µM

Question: And the IC50 [21]?
Answer: > 10 µM

Question: And the IC50 [22]?
Answer: > 10 µM

Question: And the IC50 [23]?
Answer: > 10 µM

Question: And the IC50 [24]?
Answer: > 10 µM

Question: What about the IC50 [25] of the same compound?
Answer: > 10 µM

Question: What about the IC50 [26] of the same compound?
Answer: > 10 µM
